Activity calls are given as the source filed them. The calls are words filed in the database; no cut-off is given here.
What was measured:
MCF7 [1] = assay: Induction of mitochondrial dysfunction in human MCF7 cells assessed as cell population with intact mitochondrial membrane potential at 10 uM after 24 hrs by JC1 staining-based FACScalibur flow cytometry analysis (reference value: 97%); format: functional
MCF7 [2] = assay: Cytotoxicity against human MCF7 cells assessed as cell death at 10 uM pretreated with Z-VAD-fmk followed by compound addition by MTT assay; format: functional, cell-based
4T1 [3] = assay: Inhibition of glycolysis in mouse 4T1 cells expressing PDK assessed as reduction in intracellular lactate level at 10 uM after 6 hrs by microplate reader assay; format: functional, cell-based
MCF7 [4] = assay: (§1) Induction of metabolic reversal from aerobic glycolysis to oxidative phosphorylation in human MCF7 cells assessed as increase in extracellular acidification rate at 10 uM pretreated for 4 hrs followed by glucose addition after 25 mins by seahorse XF24 extracellular flux analyzer assay; format: functional, cell-based
HCT-116 = assay: Anticancer activity against human HCT116 cells expressing PDK assessed as reduction in cell viability after 72 hrs by MTT assay; format: functional, cell-based; settings: HCT-116, 72 h
L02 = assay: Cytotoxicity against human LO2 cells assessed as reduction in cell viability after 72 hrs by MTT assay; format: cell-based; settings: L02, 72 h
[5] = Toxicity in BALB/c nude mouse xenografted with human MCF7 cells assessed as mouse death at 10 mg/kg, iv administered every 2 days for 2 weeks measured after 14 days; format: organism-based; settings: in vivo, 336 h
MCF7 [6] = assay: as §1, with “decrease” for “increase”, “mins followed by subsequent addition of oligomycin A after 50 mins followed by 2-DG addition after 80 mins” for “mins”; format: functional, cell-based
MCF7 [7] = assay: Induction of ROS generation in human MCF7 cells assessed as ROS level at 10 uM after 24 hrs by DCFDA-fluorescence based flow cytometry (reference value: 6.57 %); format: functional
MCF7 [8] = assay: Induction of apoptosis in human MCF7 cells assessed as necrotic cells at 10 uM after 24 hrs by Annexin V-FITC/propidium iodide staining-based flow cytometric analysis (reference value: 0.10 %); format: functional
4T1 [9] = assay: Inhibition of glycolysis in mouse 4T1 cells expressing PDK assessed as reduction in extracellular lactate level at 10 uM after 6 hrs by microplate reader assay; format: functional, cell-based
4T1 [10] = assay: Anticancer activity against mouse 4T1 cells expressing PDK assessed as reduction in cell viability after 72 hrs by MTT assay; format: functional, cell-based; settings: 4T1, 72 h
MCF7 [11] = assay: Antitumor activity against human MCF7 cells xenografted in BALB/c nude mouse assessed as tumor growth inhibition at 10 mg/kg, iv administered every two days for two weeks measured after 14 days; format: functional, organism-based
[12] = Toxicity in BALB/c nude mouse xenografted with human MCF7 cells assessed as effect on body weight at 10 mg/kg, iv administered every 2 days for 2 weeks measured after 14 days; format: organism-based; settings: in vivo, 336 h
MCF7 [13] = assay: Induction of mitochondrial dysfunction in human MCF7 cells assessed as cell population with mitochondrial membrane potential collapse at 10 uM after 24 hrs by JC1 staining-based FACScalibur flow cytometry analysis (reference value: 2.74 %); format: functional
MCF7 [14] = assay: Induction of apoptosis in human MCF7 cells assessed as early apoptotic cells at 10 uM after 24 hrs by Annexin V-FITC/propidium iodide staining-based flow cytometric analysis (reference value: 3.53 %); format: functional
MCF7 [15] = assay: as §1, with “mins followed by subsequent addition of oligomycin A after 50 mins” for “mins”; format: functional, cell-based
A-375 [16] = assay: Anticancer activity against human A375 cells expressing PDK assessed as reduction in cell viability after 72 hrs by MTT assay; format: functional, cell-based; settings: A-375, 72 h
[17] = Cytotoxicity against human HBMEC cells assessed as reduction in cell viability after 72 hrs by MTT assay; format: cell-based
MCF7 [18] = assay: Anticancer activity against human MCF7 cells overexpressing PDK assessed as reduction in cell viability after 72 hrs by MTT assay; format: functional, cell-based; settings: MCF7, 72 h
MCF7 [19] = assay: Inhibition of glycolysis in human MCF7 cells assessed as reduction in intracellular lactate level at 10 uM after 6 hrs by microplate reader assay; format: functional, cell-based
MCF7 [20] = assay: Induction of apoptosis in human MCF7 cells assessed as late apoptotic cells at 10 uM after 24 hrs by Annexin V-FITC/propidium iodide staining-based flow cytometric analysis (reference value: 2.97 %); format: functional
[21] = target: [Pyruvate dehydrogenase (acetyl-transferring)] kinase isozyme 1, mitochondrial (Homo sapiens) (UniProt Q15118); assay: Inhibition of PDK1 (unknown origin) expressed in human MCF7 cells using PDK tide as substrate measured after 90 mins in presence of ATP by ADP-Glo luminescent kinase assay
MCF7 [22] = assay: (§2) Induction of metabolic reversal from aerobic glycolysis to oxidative phosphorylation in human MCF7 cells assessed as […] at 10 uM pretreated for 6 hrs followed by oligomycin A addition after 25 mins followed by subsequent addition of FCCP after 50 mins followed by antimycin/rotenone addition after 80 mins by seahorse XF24 extracellular flux analyzer assay; format: functional, cell-based
MCF7 [23] = assay: Induction of apoptosis in human MCF7 cells assessed as viable cells at 10 uM after 24 hrs by Annexin V-FITC/propidium iodide staining-based flow cytometric analysis (reference value: 93.39 %); format: functional; settings: MCF7, 24 h, read-out: Activity
MCF7 [24] = assay: Inhibition of glycolysis in human MCF7 cells assessed as reduction in extracellular lactate level at 10 uM after 6 hrs by microplate reader assay; format: functional, cell-based
A-375 [25] = assay: Cytotoxicity against human A375 cells assessed as reduction in cell viability after 72 hrs by MTT assay; format: functional, cell-based; settings: A-375, 72 h
MCF7 [26] = assay: as §2, with “30” for “10”; format: functional, cell-based
MCF7 [27] = assay: as §1, with “30” for “10”, “mins followed by subsequent addition of oligomycin A after 50 mins” for “mins”; format: functional, cell-based
MCF7 [28] = assay: as §1, with “decline” for “increase”, “30” for “10”, “mins followed by subsequent addition of oligomycin A after 50 mins followed by 2-DG addition after 80 mins” for “mins”; format: functional, cell-based
MCF7 [29] = assay: Induction of apoptosis in human MCF7 cells assessed as viable cells at 30 uM after 24 hrs by Annexin V-FITC/propidium iodide staining-based flow cytometric analysis (reference value: 93.39 %); format: functional; settings: MCF7, 24 h, read-out: Activity
MCF7 [30] = assay: Induction of apoptosis in human MCF7 cells assessed as late apoptotic cells at 30 uM after 24 hrs by Annexin V-FITC/propidium iodide staining-based flow cytometric analysis (reference value: 2.97 %); format: functional
MCF7 [31] = assay: Induction of mitochondrial dysfunction in human MCF7 cells assessed as cell population with intact mitochondrial membrane potential at 30 uM after 24 hrs by JC1 staining-based FACScalibur flow cytometry analysis (reference value: 97%); format: functional
MCF7 [32] = assay: Downregulation of PDK expression in human MCF7 cells at 2.5 to 10 uM after 48 hrs by Western blot analysis; format: functional, cell-based
MCF7 [33] = assay: Antitumor activity against human MCF7 cells xenografted in BALB/c nude mouse assessed as tumor growth inhibition at 30 mg/kg, iv administered every two days for two weeks measured after 14 days; format: functional, organism-based
MCF7 [34] = assay: Induction of metabolic reversal from aerobic glycolysis to oxidative phosphorylation in human MCF7 cells assessed as […] at 30 uM pretreated for 4 hrs followed by glucose addition after 25 mins by seahorse XF24 extracellular flux analyzer assay; format: functional, cell-based
MCF7 [35] = assay: Inhibition of glycolysis in human MCF7 cells assessed as reduction in extracellular lactate level at 30 uM after 6 hrs by microplate reader assay; format: functional, cell-based
4T1 [36] = assay: Inhibition of glycolysis in mouse 4T1 cells expressing PDK assessed as reduction in extracellular lactate level at 30 uM after 6 hrs by microplate reader assay; format: functional, cell-based
MCF7 [37] = assay: Induction of ROS generation in human MCF7 cells assessed as ROS level at 30 uM after 24 hrs by DCFDA-fluorescence based flow cytometry (reference value: 6.57 %); format: functional
[38] = Toxicity in BALB/c nude mouse xenografted with human MCF7 cells assessed as effect on body weight at 30 mg/kg, iv administered every 2 days for 2 weeks measured after 14 days; format: organism-based; settings: in vivo, 336 h
MCF7 [39] = assay: Induction of apoptosis in human MCF7 cells assessed as early apoptotic cells at 30 uM after 24 hrs by Annexin V-FITC/propidium iodide staining-based flow cytometric analysis (reference value: 3.53 %); format: functional
4T1 [40] = assay: Inhibition of glycolysis in mouse 4T1 cells expressing PDK assessed as reduction in intracellular lactate level at 30 uM after 6 hrs by microplate reader assay; format: functional, cell-based
MCF7 [41] = assay: Induction of apoptosis in human MCF7 cells assessed as necrotic cells at 30 uM after 24 hrs by Annexin V-FITC/propidium iodide staining-based flow cytometric analysis (reference value: 0.10 %); format: functional
[42] = Toxicity in BALB/c nude mouse xenografted with human MCF7 cells assessed as mouse death at 30 mg/kg, iv administered every 2 days for 2 weeks measured after 14 days; format: organism-based; settings: in vivo, 336 h
MCF7 [43] = assay: Cytotoxicity against human MCF7 cells assessed as cell death at 30 uM pretreated with Z-VAD-fmk followed by compound addition by MTT assay; format: functional, cell-based
MCF7 [44] = assay: Induction of mitochondrial dysfunction in human MCF7 cells assessed as cell population with mitochondrial membrane potential collapse at 30 uM after 24 hrs by JC1 staining-based FACScalibur flow cytometry analysis (reference value: 2.74 %); format: functional
MCF7 [45] = assay: Inhibition of glycolysis in human MCF7 cells assessed as reduction in intracellular lactate level at 30 uM after 6 hrs by microplate reader assay; format: functional, cell-based

SMILES: CC(=O)N[C@H]1[C@H](O[C@H]2CC[C@]3(C)[C@H]4CC=C5[C@@H]6CC(C)(C)CC[C@]6(C(=O)O)CC[C@@]5(C)[C@]4(C)CC[C@H]3C2(C)C)O[C@H](CO[C@@H]2OC[C@H](O)[C@H](O)[C@H]2O)[C@@H](O)[C@@H]1O
- Activity (MCF7 [1]): 72.69%
- Activity (MCF7 [2]): inactive
- inhibition (4T1 [3]): inactive
- Activity (MCF7 [4]): Active
- IC50 (HCT-116): 21.6 µM
- IC50 (L02): 33.2 µM
- Activity [5]: Non-Toxic
- Activity (MCF7 [6]): Active
- Activity (MCF7 [7]): 26.43%
- Activity (MCF7 [8]): 2.07%
- inhibition (4T1 [9]): inactive
- IC50 (4T1 [10]): 16.4 µM
- Activity (MCF7 [11]): Active
- Activity [12]: Non-Toxic
- Activity (MCF7 [13]): 25.86%
- Activity (MCF7 [14]): 18.5%
- Activity (MCF7 [15]): Active
- IC50 (A-375 [16]): 5.73 µM
- IC50 [17]: 37.1 µM
- IC50 (MCF7 [18]): 20.4 µM
- inhibition (MCF7 [19]): inactive
- Activity (MCF7 [20]): 9.07%
- inhibition [21]: inactive
- Activity (MCF7 [22]): Active
- viability at 10 µM (MCF7 [23]): 70.4%
- inhibition (MCF7 [24]): inactive
- IC50 (A-375 [25]): 5.47 µM

SMILES: O=C([O-])C(Cl)Cl.[Na+] [SODIUM DICHLOROACETATE]
- Activity (MCF7 [26]): Active
- Activity (MCF7 [27]): Active
- IC50 (HCT-116): > 100 µM
- Activity (MCF7 [28]): Active
- viability at 30 µM (MCF7 [29]): 79.9%
- IC50 (L02): > 100 µM
- Activity (MCF7 [30]): 5.86%
- Activity (MCF7 [31]): 84.95%
- Activity (MCF7 [32]): inactive
- Activity (MCF7 [33]): Active
- Activity (MCF7 [34]): Active
- inhibition (MCF7 [35]): inactive
- inhibition (4T1 [36]): inactive
- IC50 (4T1 [10]): > 100 µM
- Activity (MCF7 [37]): 15.13%
- Activity [38]: Non-Toxic
- Activity (MCF7 [39]): 12.57%
- inhibition (4T1 [40]): inactive
- IC50 (A-375 [16]): > 100 µM
- IC50 [17]: > 100 µM
- IC50 (MCF7 [18]): > 100 µM
- Activity (MCF7 [41]): 1.67%
- inhibition [21]: Active
- Activity [42]: Non-Toxic
- Activity (MCF7 [43]): inactive
- Activity (MCF7 [44]): 14.63%
- inhibition (MCF7 [45]): inactive

Reference: ChEMBL document CHEMBL4354807, “Natural Product Albiziabioside A Conjugated with Pyruvate Dehydrogenase Kinase Inhibitor Dichloroacetate To Induce Apoptosis-Ferroptosis-M2-TAMs Polarization for Combined Cancer Therapy” (J Med Chem, 2019)
